According to ChEMBL document CHEMBL3390836, “Mannich- and LedererManasse-based analogues of the natural product S-(+)-curcuphenol as cancer proliferation and migration inhibitors” (Medchemcomm, 2012):

What was measured:
Format in all cases: functional
[1] = Cytotoxicity against human HCT116 cells assessed as cell growth at 10^-4 M after 48 hrs by SRB assay relative to control; details: HCT-116, 48 h, read-out: Activity
[2] = Cytotoxicity against human HCT15 cells assessed as cell growth at 10^-4 M after 48 hrs by SRB assay relative to control; details: HCT-15, 48 h, read-out: Activity
[3] = tested on: HT-29; assay: Cytotoxicity against human HT-29 cells assessed as cell growth at 10^-4 M after 48 hrs by SRB assay relative to control; details: HT-29, 48 h, read-out: Activity
[4] = tested on: SNB-75; assay: Cytotoxicity against human SNB75 cells after 48 hrs by SRB assay; details: SNB-75, 48 h
[5] = tested on: SK-MEL-2; assay: Cytotoxicity against human SK-MEL-2 cells after 48 hrs by SRB assay; details: SK-MEL-2, 48 h
[6] = tested on: SK-MEL-5; assay: Cytotoxicity against human SK-MEL-5 cells after 48 hrs by SRB assay; details: SK-MEL-5, 48 h
[7] = Cytotoxicity against human UACC62 cells after 48 hrs by SRB assay; details: UACC-62, 48 h
[8] = tested on: ACHN; assay: Cytotoxicity against human ACHN cells after 48 hrs by SRB assay
[9] = tested on: RXF 393; assay: Cytotoxicity against human RXF393 cells after 48 hrs by SRB assay; details: RXF 393, 48 h
[10] = tested on: SF-539; assay: Cytotoxicity against human SF539 cells assessed as cell growth at 10^-4 M after 48 hrs by SRB assay relative to control; details: SF-539, 48 h, read-out: Activity
[11] = tested on: HL-60(TB); assay: Cytotoxicity against human HL-60(TB) cells assessed as cell growth at 10^-8 M after 48 hrs by SRB assay relative to control; details: HL-60, 48 h, read-out: Activity
[12] = tested on: HOP-62; assay: Cytotoxicity against human HOP62 cells assessed as cell growth at 10^-8 M after 48 hrs by SRB assay relative to control; details: HOP-62, 48 h, read-out: Activity
[13] = tested on: NCI-H226; assay: Cytotoxicity against human NCI-H226 cells assessed as cell growth at 10^-8 M after 48 hrs by SRB assay relative to control; details: NCI-H226, 48 h, read-out: Activity
[14] = Cytotoxicity against human HCT15 cells assessed as cell growth at 10^-8 M after 48 hrs by SRB assay relative to control; details: HCT-15, 48 h, read-out: Activity
[15] = tested on: SF-268; assay: Cytotoxicity against human SF268 cells assessed as cell growth at 10^-8 M after 48 hrs by SRB assay relative to control; details: SF-268, 48 h, read-out: Activity
[16] = tested on: SNB-19; assay: Cytotoxicity against human SNB19 cells assessed as cell growth at 10^-8 M after 48 hrs by SRB assay relative to control; details: SNB-19, 48 h, read-out: Activity
[17] = tested on: SK-MEL-5; assay: Cytotoxicity against human SK-MEL-5 cells assessed as cell growth at 10^-4 M after 48 hrs by SRB assay relative to control; details: SK-MEL-5, 48 h, read-out: Activity
[18] = Cytotoxicity against human OVCAR5 cells assessed as cell growth at 10^-4 M after 48 hrs by SRB assay relative to control; details: OVCAR-5, 48 h, read-out: Activity
[19] = tested on: A498; assay: Cytotoxicity against human A498 cells assessed as cell growth at 10^-4 M after 48 hrs by SRB assay relative to control; details: A498, 48 h, read-out: Activity
[20] = Cytotoxicity against human OVCAR8 cells assessed as cell growth at 10^-8 M after 48 hrs by SRB assay relative to control; details: OVCAR-8, 48 h, read-out: Activity
[21] = Cytotoxicity against human NCI-ADR-RES cells assessed as cell growth at 10^-8 M after 48 hrs by SRB assay relative to control; details: read-out: Activity
[22] = tested on: A498; assay: Cytotoxicity against human A498 cells assessed as cell growth at 10^-8 M after 48 hrs by SRB assay relative to control; details: A498, 48 h, read-out: Activity
[23] = tested on: CAKI-1; assay: Cytotoxicity against human Caki1 cells assessed as cell growth at 10^-8 M after 48 hrs by SRB assay relative to control; details: CAKI-1, 48 h, read-out: Activity
[24] = Cytotoxicity against human PC3 cells assessed as cell growth at 10^-8 M after 48 hrs by SRB assay relative to control; details: PC-3, 48 h, read-out: Activity
[25] = tested on: HL-60(TB); assay: Cytotoxicity against human HL-60(TB) cells assessed as cell growth at 10^-7 M after 48 hrs by SRB assay relative to control; details: HL-60, 48 h, read-out: Activity
[26] = Cytotoxicity against human EKVX cells assessed as cell growth at 10^-7 M after 48 hrs by SRB assay relative to control; details: read-out: Activity
[27] = tested on: SF-268; assay: Cytotoxicity against human SF268 cells assessed as cell growth at 10^-7 M after 48 hrs by SRB assay relative to control; details: SF-268, 48 h, read-out: Activity
[28] = tested on: SF-539; assay: Cytotoxicity against human SF539 cells assessed as cell growth at 10^-7 M after 48 hrs by SRB assay relative to control; details: SF-539, 48 h, read-out: Activity
[29] = tested on: HCC 2998; assay: Cytotoxicity against human HCC2998 cells after 48 hrs by SRB assay; details: HCC 2998, 48 h
[30] = tested on: SW-620; assay: Cytotoxicity against human SW620 cells after 48 hrs by SRB assay; details: SW-620, 48 h
[31] = tested on: SK-MEL-5; assay: Cytotoxicity against human SK-MEL-5 cells assessed as cell growth at 10^-7 M after 48 hrs by SRB assay relative to control; details: SK-MEL-5, 48 h, read-out: Activity
[32] = Cytotoxicity against human OVCAR8 cells assessed as cell growth at 10^-7 M after 48 hrs by SRB assay relative to control; details: OVCAR-8, 48 h, read-out: Activity
[33] = tested on: NCI-H23; assay: Cytotoxicity against human NCI-H23 cells assessed as cell growth at 10^-6 M after 48 hrs by SRB assay relative to control; details: NCI-H23, 48 h, read-out: Activity
[34] = tested on: COLO 205; assay: Cytotoxicity against human COLO205 cells assessed as cell growth at 10^-6 M after 48 hrs by SRB assay relative to control; details: COLO 205, 48 h, read-out: Activity
[35] = Cytotoxicity against human HCT15 cells assessed as cell growth at 10^-6 M after 48 hrs by SRB assay relative to control; details: HCT-15, 48 h, read-out: Activity
[36] = tested on: TK-10; assay: Cytotoxicity against human TK10 cells assessed as cell growth at 10^-6 M after 48 hrs by SRB assay relative to control; details: TK-10, 48 h, read-out: Activity
[37] = read-out: LC50 (the source's name)

## CC(C)=CCC[C@H](C)c1ccc(C)c(CNCC2CCNCC2)c1O
[1]
  growth at 100 µM: -39%
[2]
  growth at 100 µM: -11%
[3]
  growth at 100 µM: -66%
[4]
  GI50: 3.89 µM
  LC50: > 25 µM
  TGI: 12.3 µM
[5]
  GI50: 5.03 µM
  LC50: 19.2 µM
  TGI: 9.83 µM
[6]
  GI50: 3.41 µM
  LC50: 12.9 µM
  TGI: 6.63 µM
[7]
  GI50: 4.24 µM
  LC50 (concentration killing 50% of cells): 16.4 µM
  TGI: 8.32 µM
[8]
  GI50: 4.68 µM
  LC50 (concentration killing 50% of cells): > 25 µM
  TGI: 12.7 µM
[9]
  GI50: 3.7 µM
  LC50 (concentration killing 50% of cells): > 25 µM
  TGI: 13.4 µM
[10]
  growth at 100 µM: -77%
[11]
  growth at 0.01 µM: 86%
[12]
  growth at 0.01 µM: 96%
[13]
  growth at 0.01 µM: 98%
[14]
  growth at 0.01 µM: 102%
[15]
  growth at 0.01 µM: 97%
[16]
  growth at 0.01 µM: 92%
[17]
  growth at 100 µM: 100%
[18]
  growth at 100 µM: 27%
[19]
  growth at 100 µM: 43%
[20]
  growth at 0.01 µM: 95%
[21]
  growth at 0.01 µM: 100%
[22]
  growth at 0.01 µM: 80%
[23]
  growth at 0.01 µM: 92%
[24]
  growth at 0.01 µM: 97%
[25]
  growth at 0.1 µM: 101%
[26]
  growth at 0.1 µM: 94%
[27]
  growth at 0.1 µM: 97%
[28]
  growth at 0.1 µM: 91%
[29]
  GI50: 4.13 µM
  TGI: 7.73 µM
[29]; [37]
  CC50: 14.4 µM
[30]
  GI50: 4.11 µM
  TGI: 8.14 µM
[30]; [37]
  CC50: 16.1 µM
[31]
  growth at 0.1 µM: 90%
[32]
  growth at 0.1 µM: 104%
[33]
  growth at 1 µM: 94%
[34]
  growth at 1 µM: 107%
[35]
  growth at 1 µM: 98%
[36]
  growth at 1 µM: 99%
